Results from paper PMC6833214, “Isolation of bioactive compounds from Bergenia ciliata (haw.) Sternb rhizome and their antioxidant and anticholinesterase activities” (BMC Complementary and Alternative Medicine, 2019).
Where two headings read alike, the source gives them in different places.

Legend:
[1] = DPPH free radical scavenging assay
Protocol: The free radical scavenging abilities of the extracts were determined using 2,2- Diphenyl-1-picrylhydrazyl (DPPH) assay modified by Brand-Williams et al. with some modification. In oxidized form of DPPH have deep violet color. On getting electrons from antioxidants the deep violet color changes to yellow color. DPPH solution was prepared by dissolving 20 mg in 100 ml methanol (stock solution). From this solution 3 ml were taken and its absorbance was adjusted to 0.75 at 515 nm (control solution). For the formation of free radical, the stock DPPH solution was covered with aluminum foil and kept in dark place for 24 h. For the preparation of stock solutions, 5 mg of each extracts were dissolved in 5 ml of methanol (5000 μg/5 ml). Different dilution (1000, 500, 250, 125 and 62.5 μg/ml) were prepared from stock solutions through serial dilution. About 2 ml from each dilution were mixed with 2 ml of DPPH solution and incubated for 15 min in darkness. The percentage inhibition of DPPH free radical by extracts was calculated using the following formula: 1 %inhibition=A−B/AX100
Where A is the absorbance of DPPH in oxidized state and B is the absorbance of mixture after 15 min of reaction. Ascorbic acid was used as standard antioxidant.

[2] = ABTS free radical scavenging assay
Protocol: These two solutions were mixed thoroughly and kept in dark overnight for the formation of free radical. About 3 ml were taken from this stock solution and its absorbance was adjusted to 0.76 at 745 nm (control solution). About 300 μl of test samples were mixed with 3 ml of ABTS solution and incubated for 15 min at 25 °C. The absorbance of the mixture was measured using a double beam spectrophotometer at 745 nm. The same procedure was followed for the preparation of different dilution of ascorbic acid (positive control). The data was recorded in triplicate and percent ABTS free radicals scavenging activities were calculated using Eq. 1.

[3] = target: T1, butyryl cholinesterase from equine (Equus caballus, UniProt P81908); experiment: Butyrylcholinesterase inhibition (Ellman's assay); type: biochemical; details: for inhibition at 125 µg/mL: 125 μg/mL; for inhibition at 1000 µg/mL: 1000 μg/mL
T1 construct: purchased Sigma-Aldrich USA
T1 sequence (P81908 whole entry): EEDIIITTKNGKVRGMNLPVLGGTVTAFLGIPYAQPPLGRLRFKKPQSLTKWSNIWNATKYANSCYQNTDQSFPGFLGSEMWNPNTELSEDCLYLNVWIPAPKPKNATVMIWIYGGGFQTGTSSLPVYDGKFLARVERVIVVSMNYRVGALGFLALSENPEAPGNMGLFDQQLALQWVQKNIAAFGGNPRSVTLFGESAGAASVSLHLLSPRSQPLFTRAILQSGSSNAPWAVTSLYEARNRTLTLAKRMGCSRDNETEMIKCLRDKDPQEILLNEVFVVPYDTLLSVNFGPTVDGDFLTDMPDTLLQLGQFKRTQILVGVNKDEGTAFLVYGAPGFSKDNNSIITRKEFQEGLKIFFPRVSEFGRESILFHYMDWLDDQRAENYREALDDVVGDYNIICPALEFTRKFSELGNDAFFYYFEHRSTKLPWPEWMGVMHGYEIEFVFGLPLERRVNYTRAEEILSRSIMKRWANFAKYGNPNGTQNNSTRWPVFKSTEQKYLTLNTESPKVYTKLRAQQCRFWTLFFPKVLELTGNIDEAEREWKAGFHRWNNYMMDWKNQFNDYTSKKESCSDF
Protocol: Acetyl cholinesterase (AChE) and butyryl cholinesterase (BChE) were used to evaluate the enzyme inhibitory potential of Bergenia ciliata rhizome extracts and isolated compounds using Ellman’s assay [18]. The mentioned enzymes when act on their respective substrates acetylthiocholine iodide and butyrylthiocholine iodide hydrolyze them which then on complexation with 5-thio-2-nitrobenzoate anion formed from DTNB give yellow color. The color change is recorded after 15 min by spectrophotometer. Phosphate buffer (pH = 8) was prepared by mixing 1.36 g/100 mL, potassium dihydrogen phosphate and 1.74 g/100 mL di-potassium hydrogen phosphate (6 and 94% respectively). The AChE solution was prepared by dissolving 0.5 mg of enzyme in 0.5 ml of phosphate buffer to get 1000 unit/ml and BChE solution was also prepared by dissolving 1 mg in 1 ml of phosphate buffer to get 10 unit/ml. These two solutions were further diluted by phosphate buffer till a final concentration of 0.03 unit/ml and 0.1 unit/ml respectively. DTNB solution (0.0002 M) and ATChI and BTChI (0.0005 M) were prepared and kept in reagent bottles in refrigerator before use.
To each test tube, 100 μl of enzyme and DTNB solutions were added and incubated for 15 min at 25 °C. After this 100 μl substrates (AChEI, BChEI) were added to each test tube and allowed to stand for 15 min. The absorbance of mixtures were recorded at 412 nm. A negative control was prepared by mixing all the above mention components except plant extracts. […] For each sample absorption was recorded for 4 minutes. Percent activities of enzyme and percent inhibition were calculated using following relations. 2 V=∆Abs/∆T 3 %enzyme activity=V/Vmaxx100
Where V is the rate of reaction in the presence of inhibitor and Vmax is the rate of reaction without inhibitor.

[4] = target: T2, acetyl cholinesterase from Electric eel (type-VI-S) (Electrophorus electricus, UniProt O42275); experiment: biochemical; details: isolated compounds, Table 6; for inhibition at 125 µg/mL: 125 μg/mL; for inhibition at 125 µg/mL / inhibition at 250 µg/mL / inhibition at 500 µg/mL / inhibition at 1000 µg/mL: read-out: AChE percent inhibition (mean ± S.E.M); for inhibition at 250 µg/mL: 250 μg/mL; for inhibition at 500 µg/mL: 500 μg/mL; for inhibition at 1000 µg/mL: 1000 μg/mL; for IC50: read-out: AChE IC50 (converted)
T2 construct: purchased Sigma-Aldrich USA type-VI-S
T2 sequence (O42275 24-633): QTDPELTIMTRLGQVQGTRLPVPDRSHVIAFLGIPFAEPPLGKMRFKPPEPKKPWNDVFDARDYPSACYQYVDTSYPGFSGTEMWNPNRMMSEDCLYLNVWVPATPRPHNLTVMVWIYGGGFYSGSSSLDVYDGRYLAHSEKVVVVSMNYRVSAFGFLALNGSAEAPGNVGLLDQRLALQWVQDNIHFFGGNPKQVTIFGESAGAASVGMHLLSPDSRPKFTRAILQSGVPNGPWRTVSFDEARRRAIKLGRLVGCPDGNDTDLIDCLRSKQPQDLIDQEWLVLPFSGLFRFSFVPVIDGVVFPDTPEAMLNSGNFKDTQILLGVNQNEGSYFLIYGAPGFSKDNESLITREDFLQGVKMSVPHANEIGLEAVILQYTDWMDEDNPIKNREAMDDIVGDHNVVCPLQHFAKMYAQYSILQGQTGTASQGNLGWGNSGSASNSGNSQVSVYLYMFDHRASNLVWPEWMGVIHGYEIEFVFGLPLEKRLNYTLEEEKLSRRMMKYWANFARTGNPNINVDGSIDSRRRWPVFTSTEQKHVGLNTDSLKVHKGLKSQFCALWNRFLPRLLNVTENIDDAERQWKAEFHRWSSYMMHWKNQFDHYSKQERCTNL

[5] = 62.5 μg/mL, isolated compounds, Table 5
[6] = 125 μg/mL, isolated compounds, Table 5
[7] = 250 μg/mL, isolated compounds, Table 5
[8] = 500 μg/mL, isolated compounds, Table 5
[9] = 1000 μg/mL, isolated compounds, Table 5
[10] = isolated compounds, Table 6, read-out: BChE percent inhibition (mean ± S.E.M)
[11] = 250 μg/mL, isolated compounds, Table 6, read-out: BChE percent inhibition (mean ± S.E.M)
[12] = 500 μg/mL, isolated compounds, Table 6, read-out: BChE percent inhibition (mean ± S.E.M)
[13] = isolated compounds, Table 6, read-out: BChE IC50 (converted)

Compound | DPPH percent inhibition (mean ± S.E.M) [1, 5] | DPPH percent inhibition (mean ± S.E.M) [1, 6] | DPPH percent inhibition (mean ± S.E.M) [1, 7] | DPPH percent inhibition (mean ± S.E.M) [1, 8] | DPPH percent inhibition (mean ± S.E.M) [1, 9] | DPPH IC50 ([1]; isolated compounds, Table 5) | ABTS percent inhibition (mean ± S.E.M) [2, 5] | ABTS percent inhibition (mean ± S.E.M) [2, 6] | ABTS percent inhibition (mean ± S.E.M) [2, 7] | ABTS percent inhibition (mean ± S.E.M) [2, 8] | ABTS percent inhibition (mean ± S.E.M) [2, 9] | ABTS IC50 ([2]; isolated compounds, Table 5) | inhibition at 125 µg/mL [3, 10] | inhibition at 250 µg/mL [3, 11] | inhibition at 500 µg/mL [3, 12] | inhibition at 1000 µg/mL [3, 10] | inhibition at 125 µg/mL [4] | inhibition at 250 µg/mL [4] | inhibition at 500 µg/mL [4] | inhibition at 1000 µg/mL [4] | other results
O=C1O[C@H]([C@@H](O)CO)C(O)=C1O [Ascorbic acid, reference compound] | 53.78 ± 0.76% | 62.90 ± 0.85% | 71.34 ± 2.16% | 80.45 ± 0.96% | 92.67 ± 0.73% | 50 µg/mL | 50.88 ± 0.32% | 58.90 ± 0.48% | 68.93 ± 0.45% | 80.29 ± 0.79% | 89.94 ± 0.86% | 62 µg/mL |  |  |  |  |  |  |  |  | DPPH percent inhibition (mean ± S.E.M) ([1]; 62.5 μg/mL, extracts, Table 2): 52.88 ± 0.32%; DPPH percent inhibition (mean ± S.E.M) ([1]; 125 μg/mL, extracts, Table 2): 62.90 ± 0.48%; DPPH percent inhibition (mean ± S.E.M) ([1]; 250 μg/mL, extracts, Table 2): 71.93 ± 0.45%; DPPH percent inhibition (mean ± S.E.M) ([1]; 500 μg/mL, extracts, Table 2): 80.29 ± 0.79%; DPPH percent inhibition (mean ± S.E.M) ([1]; 1000 μg/mL, extracts, Table 2): 92.94 ± 0.86%; DPPH IC50 ([1]; extracts, Table 2): 50 µg/mL; ABTS percent inhibition (mean ± S.E.M) ([2]; 62.5 μg/mL, extracts, Table 2): 49.78 ± 0.76%; ABTS percent inhibition (mean ± S.E.M) ([2]; 125 μg/mL, extracts, Table 2): 58.90 ± 0.85%; ABTS percent inhibition (mean ± S.E.M) ([2]; 250 μg/mL, extracts, Table 2): 68.34 ± 2.16%; ABTS percent inhibition (mean ± S.E.M) ([2]; 500 μg/mL, extracts, Table 2): 80.45 ± 0.96%; ABTS percent inhibition (mean ± S.E.M) ([2]; 1000 μg/mL, extracts, Table 2): 89.67 ± 0.73%; ABTS IC50 ([2]; extracts, Table 2): 64 µg/mL
COc1ccc2c3c1O[C@H]1C[C@@H](O)C=C[C@@]31CCN(C)C2 [Galanthamine, reference compound] |  |  |  |  |  |  |  |  |  |  |  |  | 62.43 ± 0.39% | 71.8 ± 0.48% | 86.51 ± 0.77% | 92.26 ± 0.92% |  |  |  |  | inhibition at 250 µg/mL ([3]; 250 μg/ml, extracts, Table 3, read-out: Percent BChE (mean ± SEM) inhibition): 76.72 ± 0.72%; inhibition at 500 µg/mL ([3]; 500 μg/ml, extracts, Table 3, read-out: Percent BChE (mean ± SEM) inhibition): 84.7 ± 1.2%
O=c1c(O)c(-c2ccc(O)cc2O)oc2cc(O)cc(O)c12 [Morin, 2-(2,4-Dihydroxyphenyl)-3,5,7-trihydroxychromen-4-one] | 40.85 ± 0.94 % | 48.72 ± 1.11 ^ns % | 60.25 ± 2.28 % | 72.72 ± 1.56 % | 83.93 ± 0.72 % | 105 µg/mL | 30.50 ± 1.43 % | 44.15 ± 0.56 % | 58.04 ± 2.44 % | 70.67 ± 1.02 % | 80.86 ± 1.09 % | 145 µg/mL | 51.1 ± 0.56% | 60.51 ± 0.5% | 68.4 ± 2.22% | 80.46 ± 0.76% | 56.3 ± 1.45% | 68.8 ± 0.8% | 77.2 ± 0.91% | 85.5 ± 3.19% | IC50 [3, 13]: 384 µM; IC50 [4]: 212 µM
Oc1cccc(O)c1O [Pyrogallol, Benzene-1,2,3-triol] | 48.72 ± 0.89 ^ns % | 59.93 ± 2.18 ^ns % | 70.30 ± 1.05 ^ns % | 81.64 ± 1.33 ^ns % | 89.35 ± 0.92 ^ns % | 68 µg/mL | 39.60 ± 1.39 % | 53.26 ± 1.62 % | 66.42 ± 0.90 ^ns % | 77.81 ± 1.09 ^ns % | 87.02 ± 0.81 ^ns % | 85 µg/mL | 58.3 ± 0.93% | 71.2 ± 1.38% | 80.35 ± 0.3% | 92 ± 1.89% | 66.2 ± 2.14% | 80.12 ± 0.62% | 87.4 ± 1.51% | 94.35 ± 0.72% | IC50 [3, 13]: 555 µM; IC50 [4]: 222 µM
C[C@@H]1O[C@@H](OC[C@H]2O[C@@H](Oc3c(-c4ccc(O)c(O)c4)oc4cc(O)cc(O)c4c3=O)[C@H](O)[C@@H](O)[C@@H]2O)[C@H](O)[C@H](O)[C@H]1O [Rutin, 3,3,4,5,7-pentadroxyflavones-3-rutinoside] | 35.38 ± 2.28 % | 46.63 ± 1.17 % | 57.47 ± 0.93 % | 68.43 ± 1.40 % | 80.90 ± 1.27 % | 150 µg/mL | 29.75 ± 2.18 % | 44.30 ± 0.79 % | 57.56 ± 1.42 % | 69.05 ± 0.64 % | 78.33 ± 0.63 % | 183 µg/mL | 45 ± 3.79% | 56.7 ± 0.7% | 62.5 ± 1.72% | 72 ± 0.86% | 48.1 ± 0.64% | 60.2 ± 2.35% | 66.72 ± 0.62% | 75.1 ± 1.41% | IC50 ([3]; BChE IC50, isolated compounds, Table 6): 282 µM; IC50 [4]: 193 µM
